# Results reported in article PMC5908295 (Oncotarget, 2018).
# Key:
# OCI-AML-3 = experiment: MTS viability assay, 72 h; conditions: Homo sapiens, OCI-AML-3, 72 h
# Description: (§1) 15-25 ×10^3 of MV-4-11, MOLM-13, MOLM-14, MOLM-16, KG-1, Eol-1, SKM-1, PL-21, GDM-1, SKNO-1, RS4;11, Kasumi-3 and Kasumi-6 cells were seeded in 150 μL of culture medium onto individual wells in a 96 well plates, in triplicates. On the same day, 50 μL of medium containing tested inhibitor was added to the wells. Each compound was tested at 8 concentrations, in triplicates. As a negative control, the medium containing 0.1% DMSO was used. […] Staurosporine was used at 10 μM as a positive control. One the day of drug addition, basal signal from untreated cells was measured from in triplicate to determine time zero (T0). […] GI50 and LC50 values were extrapolated from a variable (four-parameter) dose-response curve fitted in GraphPad Prism.
# RS4;11 = experiment: MTS viability assay, 72 h; conditions: Homo sapiens, RS4-11, 72 h
# Description: as §1
# GDM-1 = experiment: MTS viability assay, 72 h; conditions: Homo sapiens, GDM-1, 72 h
# Description: as §1
# SKM-1 = experiment: MTS viability assay, 72 h; conditions: Homo sapiens, SKM-1, 72 h
# Description: (§2) On the same day, 50 μL of medium containing tested inhibitor was added to the wells. Each compound was tested at 8 concentrations, in triplicates. As a negative control, the medium containing 0.1% DMSO was used. […] Staurosporine was used at 10 μM as a positive control. One the day of drug addition, basal signal from untreated cells was measured from in triplicate to determine time zero (T0). […] GI50 and LC50 values were extrapolated from a variable (four-parameter) dose-response curve fitted in GraphPad Prism.
# MV-4-11 xenograft = experiment: MV-4-11 xenograft, SEL24-B489 and AraC alone or combined; assay type: in vivo, mice; conditions: MV-4-11, AraC alone 50 mg/kg three times weekly IP
# Description: All animals were handled in strict accordance with good animal practice as defined by the relevant national and local animal welfare bodies. SCID and SCID/beige C.B-17 mice were provided by Harlan Laboratories or Charles River Laboratories, and were maintained in pathogen free conditions. For the xenograft experiments, age-matched (9-11 weeks old) females were used. 5×10^6 of MV-4-11 or MOLM-16 cells were suspended in a mixture (1:1, v:v) of PBS with Matrigel (BD Biosciences,) and injected subcutaneously (sc), in a total volume of 100 μL, above the groin on the right hind limb. For MOLM-13 and KG-1 cells, a mixture (3:1, v:v) of PBS and Matrigel HC (BD Bioscience,) was used to inject 5 × 10^6 of cell per mouse subcutaneously (sc), in a total volume of 100 μL. When tumors reached 100-130 mm^3, mice were randomized into uniform groups (6-9 mice per group) and subsequently administered the compound. […] At the end of the experiment, mice were anesthetized with isofluran and blood samples for total cell counts and biochemistry were obtained by retro-orbital bleeding. […] 5×10^6 cells suspended in a mixture (3:1, v:v) of PBS and Matrigel were injected as described above. […] Tumor volume was monitored every second day and calculated using the formula: TV = (a^2×b)/2, where “a” is the short axis in millimeters, and “b” is the long axis in millimeters. Body weight was assessed every day.
# [1] = Total blood cell counts in mice with MV-4-11 tumors; conditions: Cytarabine 50 mg/kg, treatment day 15
# Description: All animals were handled in strict accordance with good animal practice as defined by the relevant national and local animal welfare bodies. SCID and SCID/beige C.B-17 mice were provided by Harlan Laboratories or Charles River Laboratories, and were maintained in pathogen free conditions. For the xenograft experiments, age-matched (9-11 weeks old) females were used. 5×10^6 of MV-4-11 or MOLM-16 cells were suspended in a mixture (1:1, v:v) of PBS with Matrigel (BD Biosciences,) and injected subcutaneously (sc), in a total volume of 100 μL, above the groin on the right hind limb. For MOLM-13 and KG-1 cells, a mixture (3:1, v:v) of PBS and Matrigel HC (BD Bioscience,) was used to inject 5 × 10^6 of cell per mouse subcutaneously (sc), in a total volume of 100 μL. When tumors reached 100-130 mm^3, mice were randomized into uniform groups (6-9 mice per group) and subsequently administered the compound. […] At the end of the experiment, mice were anesthetized with isofluran and blood samples for total cell counts and biochemistry were obtained by retro-orbital bleeding. […] 5×10^6 cells suspended in a mixture (3:1, v:v) of PBS and Matrigel were injected as described above. When the tumor volume reached ~120 mm^3, mice were randomized into uniform groups (5 mice per group) and the compound then administered. […] Tumor volume was monitored every second day and calculated using the formula: TV = (a^2×b)/2, where “a” is the short axis in millimeters, and “b” is the long axis in millimeters. Body weight was assessed every day. […]
# Supplementary Table 10: Related to Figure 5C. […] The assessment total
# performed on treatment day 15.
# RBC – red blood cells, HGB – hemoglobin, HCT – hematocrit, WBC – white blood cells, LYMPH – lymphocytes, MONO
# – monocytes, GRA – granulocytes, PLT – platelet, MPV – mean platelet volume.
# SIG-M5 = experiment: MTS viability assay, 72 h; conditions: Homo sapiens, SIG-M5, 72 h
# Description: as §2
# OCI-AML-2 = experiment: MTS viability assay, 72 h; conditions: Homo sapiens, OCI-AML2, 72 h
# Description: as §2
# [2] = Blood biochemistry in mice with MV-4-11 tumors; assay type: in vivo; conditions: Cytarabine 50 mg/kg, treatment day 15
# Description: All animals were handled in strict accordance with good animal practice as defined by the relevant national and local animal welfare bodies. SCID and SCID/beige C.B-17 mice were provided by Harlan Laboratories or Charles River Laboratories, and were maintained in pathogen free conditions. For the xenograft experiments, age-matched (9-11 weeks old) females were used. 5×10^6 of MV-4-11 or MOLM-16 cells were suspended in a mixture (1:1, v:v) of PBS with Matrigel (BD Biosciences,) and injected subcutaneously (sc), in a total volume of 100 μL, above the groin on the right hind limb. For MOLM-13 and KG-1 cells, a mixture (3:1, v:v) of PBS and Matrigel HC (BD Bioscience,) was used to inject 5 × 10^6 of cell per mouse subcutaneously (sc), in a total volume of 100 μL. When tumors reached 100-130 mm^3, mice were randomized into uniform groups (6-9 mice per group) and subsequently administered the compound. […] At the end of the experiment, mice were anesthetized with isofluran and blood samples for total cell counts and biochemistry were obtained by retro-orbital bleeding. […] 5×10^6 cells suspended in a mixture (3:1, v:v) of PBS and Matrigel were injected as described above. When the tumor volume reached ~120 mm^3, mice were randomized into uniform groups (5 mice per group) and the compound then administered. […] Tumor volume was monitored every second day and calculated using the formula: TV = (a^2×b)/2, where “a” is the short axis in millimeters, and “b” is the long axis in millimeters. Body weight was assessed every day.
# Supplementary Table 9: Related to Figure 5C. […] The assessment of
# was performed on treatment day 15.
# AST – Aspartate aminotransferase, ALT – Alanine transaminase, ALP – alkaline phosphatase, UREA – blood urea nitrogen,
# CREA – Creatinine, CK – Creatine kinase, TP- total protein; ALB – Albumin. […]
# KG-1 = experiment: MTS viability assay, 72 h; conditions: Homo sapiens, KG-1, 72 h
# Description: as §1
# MV-4-11 = experiment: MTS viability assay, 72 h; conditions: Homo sapiens, MV4-11, 72 h
# Description: as §2
# PL-21 = experiment: MTS viability assay, 72 h; conditions: PL-21, 72 h
# Description: as §1
# EOL-1 = experiment: MTS viability assay, 72 h; conditions: Homo sapiens, EOL1, 72 h
# Description: as §1
# MOLM-16 = experiment: MTS viability assay, 72 h; conditions: MOLM16, 72 h
# Description: as §2
# KASUMI-6 = experiment: MTS viability assay, 72 h; conditions: 72 h
# Description: as §1
# MOLM-14 = experiment: MTS viability assay, 72 h; conditions: Homo sapiens, MOLM-14, 72 h
# Description: as §1
# MOLM-6 = experiment: MTS viability assay, 72 h; conditions: 72 h
# Description: as §1
# SKNO-1 = experiment: MTS viability assay, 72 h; conditions: SKNO-1, 72 h
# Description: as §1
# KASUMI-3 = experiment: MTS viability assay, 72 h; conditions: Kasumi-3, 72 h
# Description: as §1
# MOLM-13 = experiment: MTS viability assay, 72 h; conditions: Homo sapiens, MOLM-13, 72 h
# Description: as §1
# [3] = set-up: method as in PMID 21628411, PMID 24953177; conditions: off-target inhibition of the potassium channel hERG; cited from earlier work
compound,measurement,setting,value
Nc1ccn([C@@H]2O[C@H](CO)[C@@H](O)[C@@H]2O)c(=O)n1 [Cytarabine],GI50,OCI-AML-3,81 nM
same,CC50,OCI-AML-3; read-out: LC50,> 10000 nM
same,GI50,RS4;11,< 5 nM
same,CC50,RS4;11; read-out: LC50,23 nM
same,GI50,GDM-1,< 5 nM
same,GI50,SKM-1,28 nM
same,CC50,SKM-1; read-out: LC50,6460 nM
same,decrease of tumor growth,MV-4-11 xenograft,66%
same,GRA,[1],51.9%
same,HCT,[1],49.5%
same,HGB,[1],14.4 g/dL
same,LYMPH,[1],37.7%
same,MONO,[1],10.3%
same,MPV,[1],5.9 μm3
same,PLT,[1],1098 103/mm3
same,RBC,[1],9.9 106/mm3
same,WBC,[1],5.0 103/mm3
same,GI50,SIG-M5,46 nM
same,CC50,SIG-M5; read-out: LC50,> 10000 nM
same,GI50,OCI-AML-2,< 5 nM
same,CC50,OCI-AML-2; read-out: LC50,21 nM
same,ALB,[2],4.6 g/dL
same,ALP,[2],87.6 U/L
same,ALT,[2],153.7 U/L
same,AST,[2],247.1 U/L
same,CK,[2],1709 U/L
same,CREA,[2],0.37 mg/dL
same,K,[2],5.4 mM
same,TP,[2],4.6 g/dL
same,UREA,[2],5.9 mmol/L
same,GI50,KG-1,12 nM
same,CC50,KG-1; read-out: LC50,71 nM
same,GI50,MV-4-11,340 nM
same,CC50,MV-4-11; read-out: LC50,> 10000 nM
same,GI50,PL-21,< 5 nM
same,GI50,EOL-1,24 nM
same,GI50,MOLM-16,22 nM
same,CC50,MOLM-16; read-out: LC50,> 10000 nM
same,GI50,KASUMI-6,< 5 nM
same,GI50,MOLM-14,48 nM
same,CC50,MOLM-14; read-out: LC50,> 10000 nM
same,GI50,MOLM-6,30 nM
same,CC50,MOLM-6; read-out: LC50,> 10000 nM
same,GI50,SKNO-1,< 5 nM
same,GI50,KASUMI-3,< 5 nM
same,CC50,KASUMI-3; read-out: LC50,28 nM
same,GI50,MOLM-13,< 5 nM
same,CC50,MOLM-13; read-out: LC50,> 10000 nM
CN1CCC(CNc2ccc3ncc(-c4cccc(OC(F)(F)F)c4)n3n2)CC1 [SGI-1776],outcome of clinical testing,[3],failed clinical testing due to a narrow therapeutic window and cardiac toxicity
